The assay deals with human pulmonary fibroblasts (MRC-5). The experiment in a line: Cell viability (MTT) of human pulmonary fibroblasts. The following applies: stearic acid 40 uM/mL + TGF-β 5 ng/mL, 24 h, versus TGF-β alone. It counts as cell-based. As to the method:
After epithelial cells and fibroblasts were aliquoted into 6-well plates at 2×10^4 cells/well and a stabilization time was imparted for 24 hours, and 15 hours after deficiency, cells were treated with stearic acid (40 uM/mL), TGF-β (5 ng/mL), and stearic acid (40 uM/mL)+TGF-β (5 ng/mL) in this order. After the cells were cultured in an incubator for 24 hours after the treatment, the next-step experiment was performed.
After a 24-hour cell stimulation by the method in Example 1-3 was completed, the medium of epithelial cells and fibroblasts was replaced with a general culture medium, 10 μl of an MTT solution (20 mg/ml) was further added, and then the outside of the plate was wrapped with aluminum foil and cells were cultured in an incubator for 2 hours. […] After 2 hours, cell activation was measured at an absorbance value of 595 nm using an ELISA reader.
For this purpose, after each culture (BEGM(Lonza) in the case of MRC-5, and BMEM (ATCC) in the case of BEAS-2B) of human pulmonary fibroblasts (MRC-5; ATCC® CCL171™) and human pulmonary epithelial cells (BEAS-2B; ATCC® CRL9609™) was treated with stearic acid (40 uM/mL), TGF-β (5 ng/mL; Sigma), or stearic acid (40 uM/mL)+TGF-β (5 ng/mL) by the method described in Example 1-3 for 24 hours, cell viability was measured by the method in Example 1-4. […]

For `CCCCCCCCCCCCCCCCCC(=O)O` [stearic acid], the “cell viability of pulmonary fibroblasts” value is listed as “cell viability decreased”.

(Values after US20210205253A1, “Use Of Stearic Acid For Preventing Or Treating Pulmonary Fibrosis” (THE ASAN FOUNDATION, priority 2018, published 2021).)
